Legend:
Format in all cases: functional
[1] = Growth inhibition of human NCI-ADR-RES cells at 10 uM after 48 hrs by SRB assay; conditions: read-out: GI
A549 = experiment: Growth inhibition of human A549/ATCC cells at 10 uM after 48 hrs by SRB assay; conditions: A549, 48 h, read-out: GI
[2] = Growth inhibition of human HOP62 cells at 10 uM after 48 hrs by SRB assay; conditions: HOP-62, 48 h, read-out: GI
[3] = Growth inhibition of human PC3 cells at 10 uM after 48 hrs by SRB assay; conditions: PC-3, 48 h, read-out: GI
[4] = Growth inhibition of human UO31 cells at 10 uM after 48 hrs by SRB assay; conditions: UO-31, 48 h, read-out: GI
EKVX = experiment: Growth inhibition of human EKVX cells at 10 uM after 48 hrs by SRB assay; conditions: read-out: GI
T47D = experiment: Growth inhibition of human T47D cells at 10 uM after 48 hrs by SRB assay; conditions: read-out: GI
[5] = Growth inhibition of human HL-60(TB) cells at 10 uM after 48 hrs by SRB assay; conditions: HL-60, 48 h, read-out: GI
[6] = Growth inhibition of human HCC2998 cells at 10 uM after 48 hrs by SRB assay; conditions: HCC 2998, 48 h, read-out: GI
SN12C = experiment: Growth inhibition of human SN12C cells at 10 uM after 48 hrs by SRB assay; conditions: read-out: GI
[7] = Growth inhibition of human Caki1 cells at 10 uM after 48 hrs by SRB assay; conditions: CAKI-1, 48 h, read-out: GI
786-0 = experiment: Growth inhibition of human 786-0 cells at 10 uM after 48 hrs by SRB assay; conditions: 786-0, 48 h, read-out: GI
CCRF-CEM = experiment: Growth inhibition of human CCRF-CEM cells at 10 uM after 48 hrs by SRB assay; conditions: read-out: GI
[8] = Growth inhibition of human MOLT4 cells at 10 uM after 48 hrs by SRB assay; conditions: MOLT-4, 48 h, read-out: GI
MDA-MB-231 = experiment: Growth inhibition of human MDA-MB-231 cells at 10 uM after 48 hrs by SRB assay; conditions: MDA-MB-231, 48 h, read-out: GI
[9] = Growth inhibition of human SF539 cells at 10 uM after 48 hrs by SRB assay; conditions: SF-539, 48 h, read-out: GI
SK-MEL-28 = experiment: Growth inhibition of human SK-MEL-28 cells at 10 uM after 48 hrs by SRB assay; conditions: SK-MEL-28, 48 h, read-out: GI
MDA-MB-435 = experiment: Growth inhibition of human MDA-MB-435 cells at 10 uM after 48 hrs by SRB assay; conditions: MDA-MB-435, 48 h, read-out: GI
SR = experiment: Growth inhibition of human SR cells at 10 uM after 48 hrs by SRB assay; conditions: read-out: GI
MDA-MB-468 = experiment: Growth inhibition of human MDA-MB-468 cells at 10 uM after 48 hrs by SRB assay; conditions: MDA-MB-468, 48 h, read-out: GI
[10] = Growth inhibition of human HCT15 cells at 10 uM after 48 hrs by SRB assay; conditions: HCT-15, 48 h, read-out: GI
MCF7 = experiment: Growth inhibition of human MCF7 cells at 10 uM after 48 hrs by SRB assay; conditions: MCF7, 48 h, read-out: GI
[11] = Growth inhibition of human DU145 cells at 10 uM after 48 hrs by SRB assay; conditions: DU-145, 48 h, read-out: GI
[12] = Growth inhibition of human SNB19 cells at 10 uM after 48 hrs by SRB assay; conditions: SNB-19, 48 h, read-out: GI
[13] = Growth inhibition of human RPMI8226 cells at 10 uM after 48 hrs by SRB assay; conditions: RPMI-8226, 48 h, read-out: GI
[14] = Growth inhibition of human UACC257 cells at 10 uM after 48 hrs by SRB assay; conditions: UACC-257, 48 h, read-out: GI
KM12 = experiment: Growth inhibition of human KM12 cells at 10 uM after 48 hrs by SRB assay; conditions: KM12, 48 h, read-out: GI
NCI-H23 = experiment: Growth inhibition of human NCI-H23 cells at 10 uM after 48 hrs by SRB assay; conditions: NCI-H23, 48 h, read-out: GI
[15] = Growth inhibition of human OVCAR8 cells at 10 uM after 48 hrs by SRB assay; conditions: OVCAR-8, 48 h, read-out: GI
[16] = Growth inhibition of human OVCAR4 cells at 10 uM after 48 hrs by SRB assay; conditions: OVCAR-4, 48 h, read-out: GI
[17] = Growth inhibition of human SNB75 cells at 10 uM after 48 hrs by SRB assay; conditions: SNB-75, 48 h, read-out: GI
ACHN = experiment: Growth inhibition of human ACHN cells at 10 uM after 48 hrs by SRB assay; conditions: read-out: GI
[18] = Growth inhibition of human RXF393 cells at 10 uM after 48 hrs by SRB assay; conditions: RXF 393, 48 h, read-out: GI
NCI-H460 = experiment: Growth inhibition of human NCI-H460 cells at 10 uM after 48 hrs by SRB assay; conditions: NCI-H460, 48 h, read-out: GI
K562 = experiment: Growth inhibition of human K562 cells at 10 uM after 48 hrs by SRB assay; conditions: K562, 48 h, read-out: GI
M14 = experiment: Growth inhibition of human M14 cells at 10 uM after 48 hrs by SRB assay; conditions: M14, 48 h, read-out: GI
SK-MEL-2 = experiment: Growth inhibition of human SK-MEL-2 cells at 10 uM after 48 hrs by SRB assay; conditions: SK-MEL-2, 48 h, read-out: GI
A498 = experiment: Growth inhibition of human A498 cells at 10 uM after 48 hrs by SRB assay; conditions: A498, 48 h, read-out: GI
[19] = Growth inhibition of human UACC62 cells at 10 uM after 48 hrs by SRB assay; conditions: UACC-62, 48 h, read-out: GI
NCI-H322M = experiment: Growth inhibition of human NCI-H322M cells at 10 uM after 48 hrs by SRB assay; conditions: read-out: GI
SK-MEL-5 = experiment: Growth inhibition of human SK-MEL-5 cells at 10 uM after 48 hrs by SRB assay; conditions: SK-MEL-5, 48 h, read-out: GI
Malme-3M = experiment: Growth inhibition of human MALME-3M cells at 10 uM after 48 hrs by SRB assay; conditions: read-out: GI
[20] = Growth inhibition of human IGROV1 cells at 10 uM after 48 hrs by SRB assay; conditions: IGROV-1, 48 h, read-out: GI

SMILES: NS(=O)(=O)c1ccc(Nc2nccc(Nc3ccc4[nH]ncc4c3)n2)cc1
- inhibition of growth at 10 µM [1]: -6%
- inhibition of growth at 10 µM (A549): 11%
- inhibition of growth at 10 µM [2]: 17%
- inhibition of growth at 10 µM [3]: 25%
- inhibition of growth at 10 µM [4]: 18%
- inhibition of growth at 10 µM (EKVX): -1%
- inhibition of growth at 10 µM (T47D): 50%
- inhibition of growth at 10 µM [5]: 2%
- inhibition of growth at 10 µM [6]: -18%
- inhibition of growth at 10 µM (SN12C): 10%
- inhibition of growth at 10 µM [7]: -4%
- inhibition of growth at 10 µM (786-0): -1%
- inhibition of growth at 10 µM (CCRF-CEM): 28%
- inhibition of growth at 10 µM [8]: 12%
- inhibition of growth at 10 µM (MDA-MB-231): 14%
- inhibition of growth at 10 µM [9]: -3%
- inhibition of growth at 10 µM (SK-MEL-28): -18%
- inhibition of growth at 10 µM (MDA-MB-435): 1%
- inhibition of growth at 10 µM (SR): 34%
- inhibition of growth at 10 µM (MDA-MB-468): 36%
- inhibition of growth at 10 µM [10]: -6%
- inhibition of growth at 10 µM (MCF7): 40%
- inhibition of growth at 10 µM [11]: -6%
- inhibition of growth at 10 µM [12]: 4%
- inhibition of growth at 10 µM [13]: 16%
- inhibition of growth at 10 µM [14]: 14%
- inhibition of growth at 10 µM (KM12): 22%
- inhibition of growth at 10 µM (NCI-H23): 14%
- inhibition of growth at 10 µM [15]: 18%
- inhibition of growth at 10 µM [16]: -12%
- inhibition of growth at 10 µM [17]: 22%
- inhibition of growth at 10 µM (ACHN): -7%
- inhibition of growth at 10 µM [18]: 11%
- inhibition of growth at 10 µM (NCI-H460): 1%
- inhibition of growth at 10 µM (K562): 25%
- inhibition of growth at 10 µM (M14): 5%
- inhibition of growth at 10 µM (SK-MEL-2): 4%
- inhibition of growth at 10 µM (A498): 32%
- inhibition of growth at 10 µM [19]: 11%
- inhibition of growth at 10 µM (NCI-H322M): -5%
- inhibition of growth at 10 µM (SK-MEL-5): 11%
- inhibition of growth at 10 µM (Malme-3M): -3%
- inhibition of growth at 10 µM [20]: -3%
